Experimental data published in publication PMC4172381 (Bioorganic & medicinal chemistry, 2014).
Blank lines part the entries; values can stand above or below the compound they belong to.

What was measured:
human sEH = target: T1, human sEH (Homo sapiens, UniProt P34913); assay: Fluorescent; format: biochemical; conditions: for improvement in inhibition in comparison with compound 27: ratio of IC50 vs compound 27; for reduced inhibition compared to N,N,O-trimethylated oxyoxalamide derivatives: Conclusions, vs trimethylated derivatives (24, 26, 31); for drop in inhibition compared to compound 6: ratio of IC50 vs compound 6
T1 sequence (P34913 1-555): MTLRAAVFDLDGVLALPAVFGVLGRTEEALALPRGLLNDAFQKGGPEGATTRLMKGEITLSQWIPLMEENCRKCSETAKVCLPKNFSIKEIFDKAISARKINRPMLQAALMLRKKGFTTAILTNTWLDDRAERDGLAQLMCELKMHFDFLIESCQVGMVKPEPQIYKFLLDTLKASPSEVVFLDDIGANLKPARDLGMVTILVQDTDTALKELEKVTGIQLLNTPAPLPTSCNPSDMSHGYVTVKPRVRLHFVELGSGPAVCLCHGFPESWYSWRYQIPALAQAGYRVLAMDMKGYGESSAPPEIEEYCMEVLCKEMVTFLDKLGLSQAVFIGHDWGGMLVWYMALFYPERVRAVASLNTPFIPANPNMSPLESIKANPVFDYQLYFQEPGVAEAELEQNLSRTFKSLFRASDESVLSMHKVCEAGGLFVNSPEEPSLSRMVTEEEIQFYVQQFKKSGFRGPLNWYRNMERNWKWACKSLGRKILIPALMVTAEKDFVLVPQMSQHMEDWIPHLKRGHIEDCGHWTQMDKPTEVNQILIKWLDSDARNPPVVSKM

[1] = Water solubility by light scattering; format: physicochemical; conditions: vs AUDA

SMILES: CC(C)(C)ONC(=O)C(=O)Nc1ccc(CNC(=O)C23CC4CC(CC(C4)C2)C3)cc1 [Compound 19, N-(4-(N^2-t-Butyloxyoxalamido)benzyl)adamantanecarboxamide]
lowered inhibition compared to compound 18 (human sEH; ratio of IC50 vs compound 18): 1.5 fold

SMILES: O=C(NCC12CC3CC(CC(C3)C1)C2)C(=O)NOCc1ccccc1 [Compound 5, N^1-(Adamant-1-ylmethyl)-N^2-(benzyloxy)oxalamide]
inhibition of human sEH, result in words (human sEH): moderate inhibition

SMILES: CN(OCc1ccccc1)C(=O)C(=O)NC1C2CC3CC(C2)CC1C3 (stereo not drawn) [Compound 13, N^1-(Adamant-2-yl)-N^2-(benzyloxy)-N^2-methyloxalamide]
drop in inhibition compared to compound 6 (human sEH): approximately 60 fold

SMILES: O=C(NOCCCc1ccccc1)C(=O)NC1C2CC3CC(C2)CC1C3 (stereo not drawn) [Compound 12, N^1-(Adamant-2-yl)-N^2-(3-phenylpropyloxy)oxalamide]
drop in inhibition compared to compound 6 (human sEH): approximately 10 fold | better inhibition than compound 11 (human sEH; ratio of IC50 vs compound 11): approximately 8 fold

SMILES: O=C(NOCc1ccccc1)C(=O)NC1C2CC3CC(C2)CC1C3 (stereo not drawn) [Compound 6, N^1-(Adamant-2-yl)-N^2-(benzyloxy)oxalamide]
inhibition potency lower compared to AUDA (human sEH; ratio of IC50 vs AUDA): approximately 15 fold | improvement in inhibition potency compared to compound 5 (human sEH; ratio of IC50 vs compound 5): 16 fold

SMILES: CONC(=O)C(=O)Nc1ccc(CNC(=O)C23CC4CC(CC(C4)C2)C3)cc1 [Compound 18, N-(4-(N^2-Methyloxyoxalamido)benzyl)adamantanecarboxamide]
enhancement in inhibition compared to compound 17 (human sEH; ratio of IC50 vs compound 17): ≥ 3 fold

SMILES: O=C(NOc1ccccc1)C(=O)NC1C2CC3CC(C2)CC1C3 (stereo not drawn) [Compound 7, N^1-(Adamant-2-yl)-N^2-(phenyloxy)oxalamide]
inhibition of human sEH, result in words (human sEH): no inhibition

SMILES: O=C(CNC1C2CC3CC(C2)CC1C3)NOCc1ccccc1 (stereo not drawn) [Compound 16, N-(Benzyloxy)-2-(adamant-2-ylamino)acetamide]
inhibition of human sEH, result in words (human sEH): no inhibition

SMILES: O=C(NOCc1ccccc1)C(=O)NC12CC3CC(CC(C3)C1)C2 [Compound 4, N^1-(Adamant-1-yl)-N^2-(benzyloxy)oxalamide]
inhibition of human sEH, result in words (human sEH): not effective for producing inhibition activity

SMILES: O=C(NCCCc1ccccc1)C(=O)NOCc1ccccc1 [Compound 3, N^1-(Benzyloxy)-N^2-(3-phenylpropyl)oxalamide]
inhibition of human sEH, result in words (human sEH): not effective for producing inhibition activity

Next, values leading:

improved potency compared to O-methyl derivative (18) (human sEH; ratio of IC50 vs compound 18): 1.5 fold
SMILES: CON(C)C(=O)C(=O)N(C)c1ccc(CNC(=O)C23CC4CC(CC(C4)C2)C3)cc1 [Compound 21, N-(4-(N^1-Methyl-N^2-methyl-N^2-(methyloxy)oxalamido)-benzyl)adamantanecarboxamide]

improvement in inhibition in comparison with compound 27 (human sEH): 13 fold | higher solubility in water than AUDA [1]: 10 fold
SMILES: CON(C)C(=O)C(=O)N(C)c1ccc(CNC(=O)NC23CC4CC(CC(C4)C2)C3)cc1 [Compound 31, 1-(4-(N^1-Methyl-N^2-methyl-N^2-(methyloxy)oxalamido)-benzyl)-3-adamantylurea]

reduced inhibition compared to N,N,O-trimethylated oxyoxalamide derivatives (human sEH): ≤ 10 fold | improvement in inhibition in comparison with compound 27 (human sEH): 3 fold
SMILES: CON(C)C(=O)C(=O)Nc1ccc(CNC(=O)NC23CC4CC(CC(C4)C2)C3)cc1 [Compound 30, 1-(4-(N^2-Methyl-N^2-(methyloxy)oxalamido)benzyl)-3-adamantylurea]

inhibition of human sEH, result in words (human sEH): complete loss in inhibition
SMILES: O=C(NOC1CCCCO1)C(=O)Nc1ccc(CNC(=O)C23CC4CC(CC(C4)C2)C3)cc1 (stereo not drawn) [Compound 22, N-(4-(N^2-(Tetrahydro-2H-pyran-2-yloxy)oxalamido)benzyl) adamantanecarboxamide]

improved potency compared to O-methyl derivative (18) (human sEH; ratio of IC50 vs compound 18): 1.5 fold
SMILES: CON(C)C(=O)C(=O)Nc1ccc(CNC(=O)C23CC4CC(CC(C4)C2)C3)cc1 [Compound 20, N-(4-(N^2-Methyl-N^2-(methyloxy)oxalamido)benzyl)adamantanecarboxamide]

reduced inhibition compared to N,N,O-trimethylated oxyoxalamide derivatives (human sEH): ≤ 10 fold | improvement in inhibition in comparison with compound 27 (human sEH): 2.5 fold
SMILES: CONC(=O)C(=O)Nc1ccc(CNC(=O)NC23CC4CC(CC(C4)C2)C3)cc1 [Compound 28, 1-(4-(N^2-Methyloxyoxalamido)benzyl)-3-adamantylurea]
